≈ marks a conversion by molar mass, not a printed value. Calls of active or inactive are those of the source. No cut-off for these calls is given here. Some results are limits rather than exact numbers.

System in the first data set: not listed separately
Briefly: Toxicity in po dosed Rattus norvegicus (rat). The class given is organism-based. The conditions noted are these: in vivo.
For `O=[N+]([O-])NC1=NCCN1Cc1ccc(Cl)nc1` [IMIDACLOPRID], the LD50 (usually the dose at which mortality reaches 50%) was found to be 450 mg/kg.

System in a further data set: not listed separately
In words: Toxicity in Rattus norvegicus (rat) […]. The class given is organism-based. The conditions noted are these: in vivo.
For the molecule `O=[N+]([O-])NC1=NCCN1Cc1ccc(Cl)nc1` [IMIDACLOPRID], the LD50 was greater than 5000 mg/kg.

System in the next data set: not listed separately
In words: Toxicity in Leuciscus idus (golden orfe) after 96 hr. It counts as organism-based. The conditions noted are these: in vivo.
Take `O=[N+]([O-])NC1=NCCN1Cc1ccc(Cl)nc1` [IMIDACLOPRID]: the LC50 – broadly, the concentration lethal to half of the exposed cells or organisms – at 96 h amounted to 237 µg/mL (≈ 927 µM).

A further data set concerns Lepidoptera. In words: Insecticidal activity against Lepidoptera. It counts as functional, organism-based.
Conditions: not given
As to `O=[N+]([O-])/N=C1\NCCN1Cc1ccc(Cl)nc1` [IMIDACLOPRID], the outcome was inactive.

In another data set the test system is Nephotettix cincticeps. In words: Insecticidal activity against Nephotettix cincticeps (green rice leafhopper) infested on rice leaf assessed as increase in mortality at 1000 ppm after 5 days. It counts as functional, organism-based.
Conditions: not given
With `N#C/C=C1\NCCN1Cc1ccc(Cl)nc1`, the outcome was inactive.
In the case of `CCOC(=O)/C=C1\NCCN1Cc1ccc(Cl)nc1`, the result was inactive.

The next data set concerns Nephotettix cincticeps. In words: Insecticidal activity against Nephotettix cincticeps (green rice leafhopper) infested on rice leaf assessed as mortality after 5 days. The class given is functional.
Conditions: not given
`N#CC(C#N)=C1NCCN1Cc1ccc(Cl)nc1`: the LC90 worked out at 40 ppm.
Same read-out and setting: for `C=CCN1CCN(Cc2ccc(Cl)nc2)/C1=N/[N+](=O)[O-]` the value was 0.32 ppm; for `CN1CCN(Cc2ccc(Cl)nc2)/C1=N/[N+](=O)[O-]`, 1.6 ppm.
On the same count and under the same terms, then `O=C(c1ccccc1)N1CCN(Cc2ccc(Cl)nc2)/C1=N/[N+](=O)[O-]`, with 0.32 ppm.
Still for that read-out and setting: then `CC(=O)N1CCN(Cc2ccc(Cl)nc2)/C1=N/[N+](=O)[O-]`, with 0.32 ppm; and `N=C1NCCN1Cc1ccc(Cl)nc1` [DESNITROIMIDACLOPRID], with 200 ppm.
For the molecule `CC(C)N1CCN(Cc2ccc(Cl)nc2)/C1=N/[N+](=O)[O-]`, the LC90 was found to be 40 ppm.
On to `CCN1CCN(Cc2ccc(Cl)nc2)/C1=N/[N+](=O)[O-]`, for which the LC90 amounted to 8 ppm.
As for `O=[N+]([O-])/N=C1\NCCN1Cc1ccc(Cl)nc1` [IMIDACLOPRID], the LC90 is on record as 0.32 ppm.
The same measure, in the same setting: for `CCCCCN1CCN(Cc2ccc(Cl)nc2)/C1=N/[N+](=O)[O-]` the value was 40 ppm.
As for `COP(=S)(OC)Oc1ccc([N+](=O)[O-])c(C)c1` [FENITROTHION], the LC90 worked out at 200 ppm.
Still for that read-out and setting: for `O=C1NCCN1Cc1ccc(Cl)nc1` the value was 1000 ppm.
The same measure, in the same setting: for `C#CCN1CCN(Cc2ccc(Cl)nc2)/C1=N/[N+](=O)[O-]` the value was 0.32 ppm; for `N#CN1CCN(Cc2ccc(Cl)nc2)/C1=N/[N+](=O)[O-]`, 0.32 ppm.
`O=[N+]([O-])/C=C1\NCCN1Cc1ccc(Cl)nc1`: the LC90 is listed as 0.32 ppm.
On the same count and under the same terms, then `CCCN1CCN(Cc2ccc(Cl)nc2)/C1=N/[N+](=O)[O-]`, with 0.32 ppm; and `CCCCN1CCN(Cc2ccc(Cl)nc2)/C1=N/[N+](=O)[O-]`, with 1.6 ppm.

Source of the values: ChEMBL document CHEMBL3046770, “1-(6-Chloronicotinyl)-2-nitroimino-imidazolidines and Related Compounds as Potential New Insecticides” (Biosci Biotechnol Biochem, 1992).
